Measured values reported in patent US9834540B2, “Omeprazole Sodium semihydrate and preparation method thereof” (TIANJIN UNIVERSITY, priority 2015, dated 2017).
“And” between values parts separate entries of the source, which are not always exact repeats. Equal values may be shown once. “Also recorded” adds a separate entry of the source.

Assays:
[1] = prior-art description; cited from earlier work
[2] = Hygroscopicity at 40° C. by dynamic vapor sorption; assay type: physicochemical
rats [3] = assay: Carcinogenic test in rats within 24 months; assay type: in vivo; settings: 24 months persistently treated
Flowability (carr index) = assay type: physicochemical
male and female rats [4] = assay: Reproductive toxicity test; settings: oral 138 mg/kg/day
[5] = Deposit at 40° C. and relative humidity 75% for 3 days; assay type: physicochemical; settings: relative humidity 75%
Procedure: 0.45 g of Omeprazole Sodium monohydrate, 20 mL of ethyl acetate and 10 mL of s-butanol were added to a crystallizer, and the mixture was stirred at a temperature of 35° C. and a speed of 200 r/min for 2 hours, followed by filtrating and drying to provide 0.42 g of Omeprazole Sodium semihydrate with a mole yield of 95.6% and a HPLC purity of 99.8%. The product had same X-ray powder diffraction pattern as FIG. 1, same solid Fourier transform infrared spectrum as FIG. 2, and DSC decomposition temperature of 227.5° C.

male and female rats [6] = settings: rat, in vivo
[7] = Toxic responses, overall comparison; settings: in words
[8] = DSC analysis, thermal decomposition temperature; assay type: physicochemical; settings: 10° C./min, 25˜300° C.
Procedure: The DSC data is obtained by analysis using a differential scanning calorimetry (DSC1/500, Mettler Toledo Corporation, Switzerland), and the analysis conditions are as follows: adding 10 mg of sample to a 40 μL Aluminum crucible, providing high-purity nitrogen as reaction gas and shield gas with a gas-flow rate of 50 mL/min and 20 mL/min, and raising the temperature at a rate of 10° C./min and a range of 25˜300° C.

[9] = Thermal stability test at 60° C. (airtight container, 10 days, weighed regularly); assay type: physicochemical; settings: for Change of crystal form / X-ray powder diffraction pattern after deposit at 60° C.: 10 days
dogs = settings: dog, in vivo
rats [10] = settings: rat, in vivo, 140 mg/kg/day
[11] = Toxic responses test, lethal dose in mice; settings: mouse, in vivo
[12] = Toxic responses test, intravenous lethal dose in rats; settings: rat, in vivo, read-out: intravenous LD50 (median lethal dose)
stomach ECL cells = settings: rat, in vivo
[13] = listed as Example 1, sodium salt
[14] = listed as Example 2, sodium salt
[15] = listed as Example 3, sodium salt

For COc1ccc2[nH]c([S+]([O-])Cc3ncc(C)c(OC)c3C)nc2c1 (stereo not drawn) [Omeprazole Sodium hydrate], the “stability (in words)” value [1] is given as “poor stability”.

In the case of COc1ccc2[n-]c([S+]([O-])Cc3ncc(C)c(OC)c3C)nc2c1.[Na+] (stereo not drawn) [Omeprazole Sodium semihydrate], the “hygroscopicity compared with Omeprazole Sodium monohydrate” value ([2]; in words) is reported as “lower hygroscopicity”, the Weight changing rate ([2]; relative humidity 0%) is reported as 0% and the Weight changing rate ([2]; relative humidity 5%) is reported as 0.001%. For the same compound, the Weight changing rate ([2]; relative humidity 10%) was 0.004%, the Weight changing rate ([2]; relative humidity 15%) was 0.01% and the Weight changing rate ([2]; relative humidity 20%) was 0.02%. It also gave a Weight changing rate ([2]; relative humidity 25%) of 0.02%, a Weight changing rate ([2]; relative humidity 30%) of 0.03% and a Weight changing rate ([2]; relative humidity 35%) of 0.03%. The Weight changing rate ([2]; relative humidity 40%) was 0.03%, the Weight changing rate ([2]; relative humidity 45%) was 0.14% and the Weight changing rate ([2]; relative humidity 50%) was 0.17%. For the same compound, the Weight changing rate ([2]; relative humidity 55%) was 0.28%, the Weight changing rate ([2]; relative humidity 60%) was 0.37% and the Weight changing rate ([2]; relative humidity 65%) was 0.45%. For the same compound, the Weight changing rate ([2]; relative humidity 70%) was 0.53%, the Weight changing rate ([2]; relative humidity 75%) was 0.69% and the “carcinogenic test: gastric mucosa finding” value (rats [3]) was “enterochromaffin-like cell hyperplasia in gastric mucosa”. The “carcinogenic test: carcinogenesis / cancer metastasis” value (rats [3]; sodium salt) was “cancer metastasis is not found; also recorded: carcinogenesis occurred without cancer metastasis”, the carr index (Flowability (carr index); [13]) was 14.3% and the carr index (Flowability (carr index); [14]) was 13.9%. For the same compound, the carr index (Flowability (carr index); [15]) was 14.7%, the carr index (Flowability (carr index); sodium salt) was “less than 15%” and the “influence on reproductive performance” value (male and female rats [4]) was “no influence on reproductive performance”. The Weight changing rate [5] was 0.68%, the “reproductive toxicity test result” value (male and female rats [6]) was “negative” and the “toxicity compared with existing Omeprazole Sodium or monohydrate” value [7] was “improved toxicity”. For the same compound, the “drug mutation test result” value (Drug mutation test) was “negative”, the “thermal decomposition temperature (DSC decomposing exothermic peak)” value (from here on “thermal decomposition temperature”) [8, 13] was 227.5 °C and the “thermal decomposition temperature” value [8, 14] was 229.2 °C. The “thermal decomposition temperature” value [8, 15] was 229.5 °C, the “thermal decomposition temperature” value ([8]; sodium salt) was 228.5±1 °C and 228.5 °C and the Weight changing rate ([9]; 0 day) was 0%. For the same compound, the Weight of sample ([9]; 0 day) was 9.5852 g, the Weight changing rate ([9]; 5 day) was 1.1% and the Weight of sample ([9]; 5 day) was 9.4826 g. For the same compound, the Weight of sample ([9]; 10 day) was 9.3790 g, the Weight changing rate ([9]; 10 day, listed as Example 1, sodium salt) was 2.4% and the Weight changing rate ([9]; 10 day, listed as Example 2, sodium salt) was 2.5%. For the same compound, the Weight changing rate ([9]; 10 day, listed as Example 3, sodium salt) was 2.4%, the “Change of crystal form / X-ray powder diffraction pattern after deposit at 60° C.” value [9, 13] was “without making any significant changes in the X-ray powder diffraction pattern” and the “Change of crystal form / X-ray powder diffraction pattern after deposit at 60° C.” value [9, 14] was “without making any significant changes in the X-ray powder diffraction pattern”. For the same compound, the “Change of crystal form / X-ray powder diffraction pattern after deposit at 60° C.” value [9, 15] was “without making any significant changes in the X-ray powder diffraction pattern” and the “Change of crystal form / X-ray powder diffraction pattern after deposit at 60° C.” value ([9]; sodium salt) was “does not make any significant change”.

For COc1ccc2[nH]c([S+]([O-])Cc3ncc(C)c(OC)c3C)nc2c1 (stereo not drawn) [Omeprazole], the “Intravenous LDLo (lowest published lethal dose)” value (dogs) was 500 mg/kg, the long-term toxicity findings (rats [10]) was “liver and kidney increased in weight without histologic changes” and the LD50 ([11]; mice, intravenous, read-out: Intravenous LD50) was 82.8 mg/kg. For the same compound, the LD50 ([11]; oral, species not restated, follows mice, read-out: oral LD50) was > 2000 mg/kg, the LD50 [12] was 302 mg/kg and the “stomach ECL cell findings in long-term treatment” value (stomach ECL cells) was “cell increase and benign tumour were observed in stomach ECL cells”.
